Data as given in patent US9074163B2, “Targeted performance of hypohalite systems thereof” (The Clorox Company, priority 2012, dated 2015).

Test: percentage initial hypochlorite remaining as a function of time after mixing oxidant with reductant
Format: physicochemical
Conditions: any pH below 12
Source text: The amount of available halogen oxidant in the composition may be determined by placing samples of the composition into about 50 milliliters of distilled water, followed by addition of about 10 milliliters of a 10 wt % solution of potassium iodide and addition of about 10 milliliters of a 10 volume % solution of sulfuric acid, the resulting mixture being well stirred. The resulting yellow to brown solution, whose color is the result of oxidation of free iodine ion (I′) to molecular iodine (I2), is then volumetrically titrated to an essentially colorless endpoint by addition of standardized 0.1 Molar sodium thiosulfate (Na2S2O3) titrant. […] Stability results are then expressed by repeated assays over time using identically prepared samples resulting from the same composition, normalized to 100 percent representative of the starting available chlorine measured initially.
Alternatively, at lower concentrations of hypochlorite, generally below about 2,000 ppm or 0.2 wt %, spectroscopic measurement of the absorption of aqueous solutions may be used to monitor the concentration, and resulting changes, of the hypochlorous acid species in solution. […] By use of controls, the relative level of hypochlorite can then be monitored and calculated by measuring absorbance of solutions by means of a suitable instrument, such as a spectrophotometer. […]

O=C(O)CN(CCN(CC(=O)O)CC(=O)O)CC(=O)O [EDTA, ethylene diamine tetra-acetic acid]
reaction of reductant with hypochlorite (quenching rate): reacts almost instantly
